Measurements reported in patent US11207385B2, “Melanocortins and methods of use thereof” (Aequus Biopharma, Inc., priority 2015, dated 2021).
pEC50: −log10 of the molar value. Square brackets hold non-standard residues; d marks the D form. Ends that are not written are not given here. Nle = CCCC[C@H](N)C(=O)O

Assays:
MCR2 = biological target: T1, MCR2 (Homo sapiens, UniProt Q01718); experiment: cAMP production (LANCE cAMP assay) in CHO-MCR2 cells; assay type: cell-based
T1 construct: expressed in transfected cells; host or cells: CHO (CHO-MCR2)
T1 sequence (Q01718 whole entry): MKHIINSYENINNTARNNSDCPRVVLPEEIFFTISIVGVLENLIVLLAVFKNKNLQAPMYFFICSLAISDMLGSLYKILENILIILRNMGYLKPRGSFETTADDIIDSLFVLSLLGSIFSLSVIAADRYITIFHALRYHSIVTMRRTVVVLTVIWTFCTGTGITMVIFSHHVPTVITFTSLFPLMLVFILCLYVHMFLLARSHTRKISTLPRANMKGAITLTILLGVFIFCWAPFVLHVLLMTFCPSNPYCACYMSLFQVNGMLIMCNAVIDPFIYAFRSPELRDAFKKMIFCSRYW
T1 sequence (Q8TCY5 whole entry partner): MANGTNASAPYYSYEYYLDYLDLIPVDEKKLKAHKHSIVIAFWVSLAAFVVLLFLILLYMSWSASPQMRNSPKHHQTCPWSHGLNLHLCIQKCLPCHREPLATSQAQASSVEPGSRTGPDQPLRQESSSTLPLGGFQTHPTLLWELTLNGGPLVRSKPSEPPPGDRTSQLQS
Description: The manufacturer's recommended protocol was followed.

MCR4 = biological target: T2, MCR4 (Homo sapiens, UniProt P32245); experiment: cAMP production (LANCE cAMP assay) in CHO-MCR4 cells; assay type: cell-based; conditions: Cell Pool B (partially enriched for MCR expression)
T2 construct: expressed in transfected cells; host or cells: CHO (CHO-MCR4)
T2 sequence (P32245 whole entry): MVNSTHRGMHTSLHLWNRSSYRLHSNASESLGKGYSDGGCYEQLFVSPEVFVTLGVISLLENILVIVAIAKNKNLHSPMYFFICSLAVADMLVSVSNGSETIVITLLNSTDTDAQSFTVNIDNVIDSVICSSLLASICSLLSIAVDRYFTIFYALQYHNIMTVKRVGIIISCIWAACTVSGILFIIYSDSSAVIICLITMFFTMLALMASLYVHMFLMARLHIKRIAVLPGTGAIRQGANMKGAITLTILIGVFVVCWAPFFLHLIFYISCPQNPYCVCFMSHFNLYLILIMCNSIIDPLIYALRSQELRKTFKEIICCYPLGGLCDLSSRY
Method: MCR stimulation in response to polypeptides added to cell culture media was measured by cAMP production via LANCE cAMP assay (Perkin Elmer cat #AD0263).
The manufacturer's recommended protocol was followed. […] To each well was added 5 uL of cell suspension (10,000 CHO-MCR cells per well, with Alexa-labeled antibodies). The mixtures were incubated for 30 minutes at room temperature. Then, to each well was added 10 uL of Detection Mix. The mixtures were incubated for 120 minutes at room temperature. […] This process was repeated for each of CHO-MCR1, CHO-MCR2, CHO-MCR3, CHO-MCR4 and CHO-MCR5 cells.

[1] = test system: murine models of gout (MSU-injected air pouch); experiment: Murine air pouch model of gout, neutrophil counts and IL-1β in exudate (Example 6); assay type: in vivo, Balb/c mice; conditions: 3 and 10 nmol/mouse sc 1 h before MSU
Method: An air pouch was formed by injecting 6 mL of sterile air using a syringe filter with a 0.22 micron air filter and 23-gauge needle subcutaneously into a shaved skin site on the back of male Balb/c mice (age 6-8 weeks) on Day 0. The wound result from the pouch was allowed to heal for 3 days without any intervention. The pouch was then re-inflated with 3 mL of sterile air on Day 3. Three days after re-inflation on Day 6, compositions described herein were administered via subcutaneous injection 1 hour prior to the administration of 30 mg monosodium urate crystals (MSU) directly into the air pouch to induce an inflammatory response. Four hours after injection of MSU, mice were anesthetized and exsanguinated. Exudate from the air pouch was collected by lavaging the air pouch of each animal with 3 ml of sterile PBS containing 10 U/ml heparin. Analyses performed on exudates include determining neutrophil counts and IL-1β cytokine concentrations. […] 10 • 3) NDP-α-MSH-linker-linker-ACTH1-24, SEQ ID NO. 23 • 4) ACTH1-24-linker-linker-NDP-α-MSH, SEQ ID NO. 26
SEQ ID NOS. […] SEQ ID NO. 23 and SEQ ID NO. […] 10 in reducing neutrophil counts and IL-1β cytokine concentrations in collected exudate, and the arrangement of SEQ ID NO. […] 23.

plasma corticosterone = experiment: Steroidogenic effects: corticosterone response in healthy mice (ELISA); assay type: in vivo, Balb/c mice; conditions: for Mean corticosterone: plasma 1 h after dosing
Method: Compositions described herein were administered to Balb/c mice to determine the half-maximal effective concentrations for induction of corticosteroids in healthy mice. Balb/c mice were divided into 13 groups of 4 animals each (Groups 1-13), and each animal was administered a composition at a dosage as indicated in Table 5.
Each animal was injected subcutaneously at 0.2 ml/mouse as in Table 5. One hour after vehicle or test compositions were administered, the mice were anesthetized and exsanguinated into pre-chilled EDTA-treated microtainer tubes (Becton-Dickinson). The whole blood was processed to plasma and assayed by ELISA for corticosterone (Enzo Life Sciences).

[2] = Cell Pool B (partially enriched for MCR expression)
[3] = Cell Pool A (partially enriched for MCR expression)

SYSMEHFRWGKPVGKKRRPVKVYPPLPEGGPEPRSDGAKPGPREGKRSYSMEHFRWGKPV [compound 42]
pEC50 (MCR2; [2]): 9.82 | pEC50 (MCR4): < 7.70

SYSMEHFRWGKPVGKKRRPVKVYPELTGQRLREGDGPDGPADDGAGASYSMEHFRWGKPV [compound 43]
pEC50 (MCR2; [2]): 9.74 | pEC50 (MCR4): < 7.70

SYSMEHFRWGKPVGKKRRPVKVYPPLPEGGPEPRSDGAKPGPREGKRSYS[Nle]EH[dF]RWGKPV [compound 39]
pEC50 (MCR2; [2]): 9.74 | pEC50 (MCR4): 8.80

YVMGHFRWDRFGSYSMEHFRWGKPVGKKRRPVKVYP [compound 15]
pEC50 (MCR2; [3]): 8.30

YVMGHFRWDRFGKRSYSMEHFRWGKPVGKKRRPVKVYP [compound 1]
pEC50 (MCR2; [3]): 7.59

NDP-α-MSH-linker-linker-ACTH1-24 (Ac-SYS[Nle]EH[dF]RWGKPVGGGGSGGGGSSYSMEHFRWGKPVGKKRRPVKVYP) [SEQ ID NO. 23]
reducing neutrophil counts in collected exudate (comparison in words) ([1]; FIG. 8): more active than SEQ ID NO. 10 | reducing IL-1β cytokine concentrations in collected exudate (comparison in words) ([1]; FIG. 9): more active than SEQ ID NO. 10

CCCC[C@H](NC(=O)[C@H](CO)NC(=O)[C@H](Cc1ccc(O)cc1)NC(=O)[C@H](CO)NC(=O)[C@H](CO)NC(=O)CNC(=O)CNC(=O)CNC(=O)CNC(=O)[C@H](CO)NC(=O)CNC(=O)CNC(=O)CNC(=O)CNC(=O)[C@@H]1CCCN1C(=O)[C@H](Cc1ccc(O)cc1)NC(=O)[C@@H](NC(=O)[C@H](CCCCN)NC(=O)[C@@H](NC(=O)[C@@H]1CCCN1C(=O)[C@H](CCCNC(=N)N)NC(=O)[C@H](CCCNC(=N)N)NC(=O)[C@H](CCCCN)NC(=O)[C@H](CCCCN)NC(=O)CNC(=O)[C@@H](NC(=O)[C@@H]1CCCN1C(=O)[C@H](CCCCN)NC(=O)CNC(=O)[C@H](Cc1c[nH]c2ccccc12)NC(=O)[C@H](CCCNC(=N)N)NC(=O)[C@H](Cc1ccccc1)NC(=O)[C@H](Cc1c[nH]cn1)NC(=O)[C@H](CCC(=O)O)NC(=O)[C@H](CCSC)NC(=O)[C@H](CO)NC(=O)[C@H](Cc1ccc(O)cc1)NC(=O)[C@@H](N)CO)C(C)C)C(C)C)C(C)C)C(=O)N[C@@H](CCC(=O)O)C(=O)N[C@@H](Cc1c[nH]cn1)C(=O)N[C@H](Cc1ccccc1)C(=O)N[C@@H](CCCNC(=N)N)C(=O)N[C@@H](Cc1c[nH]c2ccccc12)C(=O)NCC(=O)N[C@@H](CCCCN)C(=O)N1CCC[C@H]1C(=O)N[C@H](C(=O)O)C(C)C [SEQ ID NO. 26, ACTH1-24-linker-linker-NDP-α-MSH]
Fold change over baseline (corticosterone) (plasma corticosterone; 0.003 nmol/mouse sc): 0.8 | Mean corticosterone (plasma corticosterone; 0.003 nmol/mouse sc): 863553 pg/mL | Fold change over baseline (corticosterone) (plasma corticosterone; 0.03 nmol/mouse sc): 1.0 | Mean corticosterone (plasma corticosterone; 0.03 nmol/mouse sc): 116070 pg/mL | Fold change over baseline (corticosterone) (plasma corticosterone; 0.3 nmol/mouse sc): 1.8 | Mean corticosterone (plasma corticosterone; 0.3 nmol/mouse sc): 149581 pg/mL | Fold change over baseline (corticosterone) (plasma corticosterone; 1.0 nmol/mouse sc): 3.3 | Mean corticosterone (plasma corticosterone; 1.0 nmol/mouse sc): 264845 pg/mL | Fold change over baseline (corticosterone) (plasma corticosterone; 3.0 nmol/mouse sc): 3.4 | Mean corticosterone (plasma corticosterone; 3.0 nmol/mouse sc): 488734 pg/mL | Fold change over baseline (corticosterone) (plasma corticosterone; 10.0 nmol/mouse sc): 4.4 | Mean corticosterone (plasma corticosterone; 10.0 nmol/mouse sc): 514583 pg/mL | effect on plasma corticosterone (plasma corticosterone; 0.015, 0.15, and 1.5 μg/mouse sc): no significant effect | reduction in plasma corticosterone levels at equally active dose levels (plasma corticosterone; 3 nanomole SEQ ID NO. 26 versus 10 nanomole SEQ ID NO. 10, healthy mice): 40% | plasma corticosterone levels (significantly increased, not different from each other) (plasma corticosterone; 5.2-51.5 μg/mouse sc): ~500 ng/mL | plasma corticosterone after a single subcutaneous injection (dose response, words) (plasma corticosterone; single sc injection 0.2 ml/mouse, FIG. 14): dose-dependent increase in plasma corticosterone

CSCC[C@H](NC(=O)[C@H](CO)NC(=O)[C@H](Cc1ccc(O)cc1)NC(=O)[C@@H](N)CO)C(=O)N[C@@H](CCC(=O)O)C(=O)N[C@@H](Cc1c[nH]cn1)C(=O)N[C@@H](Cc1ccccc1)C(=O)N[C@@H](CCCNC(=N)N)C(=O)N[C@@H](Cc1c[nH]c2ccccc12)C(=O)NCC(=O)N[C@@H](CCCCN)C(=O)N1CCC[C@H]1C(=O)N[C@H](C(N)=O)C(C)C [compound 11]
pEC50 (MCR2; Cell Pool C (optimized cell bank)): < 7.00

SYSMEHFRWGKPVGKKRRPVKVYPELTGQRLREGDGPDGPADDGAGASYS[Nle]EH[dF]RWGKPV [compound 40]
pEC50 (MCR2; [2]): 9.82

YVMGHFRWDRFGRRNSSSSGSSGAGQSYSMEHFRWGKPVGKKRRPVKVYP [compound 14]
pEC50 (MCR2; [3]): < 7.00

YVMGHFRWDRFGRRNSSSSGSSGAGQKR [compound 9]
pEC50 (MCR2; [2]): < 7.00 | pEC50 (MCR4): < 7.00
